According to patent US5834452A, “1- or 6-hydroxylated steroids” (Roussel Uclaf, priority 1996, dated 1998):

Experiments:
[1] = system: endometrial proliferation (uterine lace); assay: Progestomimetic activity: endometrial transformation in the rabbit (Clauberg-McPhail test); assay type: in vivo; parameters: key to Maximal activity on the uterine lace (McPhail index) / Average uterine lace (McPhail Index): McPhail scale 0–4 with 0.5 steps (endometrial proliferation); settings: for Average uterine lace (McPhail Index): day 8 to day 11
Procedure: 2. --Determination of the progestomimetic activity of the products of the invention: Endometrial transformation in the rabbit. The animals used were impuberal female rabbits which were 40-45 days old. The animals were treated with estradiol (5 ug/0.2 ml/rabbit in solution of corn oil, 10% ethanol) by subcutaneous route from day 1 to day 5, then the product to be studied was administered from day 8 to day 11. On day 12, the animals were sacrificed and a median portion of each uterine cornua was removed from each animal and fixed in Bouin's liquid for histological study. After fixing, the samples were dehydrated, included, cut, mounted, the paraffin was removed and then the sample was stained with hemalum-eosin-saffron. […] Then, for each of the cornua, a semi-quantitative evaluation of the endometrial proliferation (uterine lace) was carried out by the McPhail scale from 0 to 4 with 0.5 intermediates and the two figures were averaged. Similarly, the degree of hypertrophy of the cornua was evaluated by the same scale. At higher magnification, morphological observations of the mucous membrane or the myometrium could possibly be formulated. The 1-OH metabolite (product A) was tested at doses of 10, 100, 1000 μg/kg by subcutaneous route as well as orally at a dose of 1000 μg/kg. The 6-OH metabolite (product B) was tested at doses of 100, 1000 and 10000 μg/kg subcutaneously. As a control, progesterone was administered at doses of 100 and 1000 μg/kg by subcutaneous route. The averages were produced for the uterine lace (McPhail Index).

[2] = target: T1, Human progesterone receptor (HPR) (Homo sapiens, UniProt P06401); assay: Relative bond affinity (RBA), recombinant human progestogen receptor, charcoal dextran technique; assay type: binding; settings: relative to Trimegestone
T1 construct: made in house; host or cells: SF9 insect cells (ATCC CRL1711), baculovirus, lysate supernatant
T1 sequence (P06401 1-933): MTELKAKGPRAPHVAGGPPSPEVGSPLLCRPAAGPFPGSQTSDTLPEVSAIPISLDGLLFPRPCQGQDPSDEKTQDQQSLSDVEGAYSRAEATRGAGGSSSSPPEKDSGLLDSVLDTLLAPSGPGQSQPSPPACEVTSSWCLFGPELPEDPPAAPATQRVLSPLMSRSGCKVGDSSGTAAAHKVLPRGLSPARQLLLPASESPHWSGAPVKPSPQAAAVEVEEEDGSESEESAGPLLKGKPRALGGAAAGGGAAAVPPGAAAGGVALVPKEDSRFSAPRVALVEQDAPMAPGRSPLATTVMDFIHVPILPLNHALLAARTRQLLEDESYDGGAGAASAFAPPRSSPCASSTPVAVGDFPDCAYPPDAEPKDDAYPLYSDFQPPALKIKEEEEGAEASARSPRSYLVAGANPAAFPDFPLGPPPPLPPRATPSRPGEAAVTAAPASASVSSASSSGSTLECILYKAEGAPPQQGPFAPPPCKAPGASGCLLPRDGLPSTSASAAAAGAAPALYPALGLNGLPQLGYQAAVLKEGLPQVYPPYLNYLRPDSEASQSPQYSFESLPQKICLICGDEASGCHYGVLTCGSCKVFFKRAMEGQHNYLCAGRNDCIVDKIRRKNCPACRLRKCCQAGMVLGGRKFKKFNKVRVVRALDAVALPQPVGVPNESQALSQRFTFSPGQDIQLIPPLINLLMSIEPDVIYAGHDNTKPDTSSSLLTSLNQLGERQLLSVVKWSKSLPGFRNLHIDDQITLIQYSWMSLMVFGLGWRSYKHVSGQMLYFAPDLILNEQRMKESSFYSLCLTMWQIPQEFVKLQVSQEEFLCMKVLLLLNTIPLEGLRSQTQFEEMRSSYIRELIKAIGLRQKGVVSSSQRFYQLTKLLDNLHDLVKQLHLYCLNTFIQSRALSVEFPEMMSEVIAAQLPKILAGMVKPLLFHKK
Description: The human recombinant receptor (HGR, HPR, HAR, HMR, HER) was used.
Human progesterone receptor (HPR):
The recombinant human progestogen receptor was obtained by the superexpression in a cell system of insects--Baculovirus, according to the methodology described by Webb et al (Journal of Methods in Cell and Molecular Biology, (1990) Vol. 2 No. 4, p. 173-188) and the application of which was described for the expression of human hormonal receptors, for example the human glucocorticoid receptor (Srinivasan et al, Molecular Endocrinology, (1990) Vol. 4 No. 2, p. 209-216.
The BaculoGold Transfection Kit (PharMingen, reference 21000K) was used to insert the cDNA fragment described by Kastner et al (The EMBO Journal, (1990), Vol. 9 No. 5, p. 1603-1614), containing the region coding for the human progestogen receptor and to prepare the corresponding recombinant virus. The recombinant virus obtained in this way was used to express the progestogen receptor in SF9 insect cells (ATCC CRL1711), according to the known methodology cited previously.
2×10^7 to 2.5×10^7 SF9 cells were cultured in a 175 ml "Falcon" flask in the TNM-FH medium supplemented with 10% fetal calf serum (FCS) and with 50 micrograms/ml of gentamycin. After infection, then incubation at 27° C. for 40 to 42 hours, the cells were taken up in 1 ml of lysis buffer (1), lysed by 2 cycles of freezing-thawing (-80° C./ 0° C.), then centrifuged at 4° C. for 30 minutes at 20,900 g. The supernatant, containing the recombinant human progestogen receptor, was stored in liquid nitrogen in quantities of 1 ml.
The supernatant was diluted at the time of use with 10 mM Tris buffer, 0.25M saccharose, HCl pH 7.4 containing 0.1% of gelatin and then incubated at 0° C. for 24 hours with a constant concentration (T) of tritiated 17α, 21-dimethyl-19-nor-Δ^4,9 pregnadiene-3,20-dione in the presence of increasing concentrations of either unlabelled progesterone (0-2500×10^-9 M), or the unlabelled product to be tested (1 to 25000×10^-9 M). The concentration of bound tritiated 17,21-dimethyl-19-nor-Δ^4,9 -pregnadiene-3,20-dione (B) was then measured in each incubate using the charcoal dextran adsorption technique.
Calculation of the relative bond affinity (RBA).
The following two curves were drawn: the percentage of bound tritiated hormone B/BO as a function of the logarithm of the concentration of unlabelled reference hormone or as a function of the logarithm of the concentration of unlabelled test product. The straight line of the following equation was determined: […]
The relative bond affinity (RBA) of the test product was determined by the equation: […]

Row | Compound | Average uterine lace (McPhail Index) ([1]; rabbit, 0,1 mg/kg, s/c) | Maximal activity on the uterine lace (McPhail index) ([1]; rabbit, 1000 μg/kg by subcutaneous route (note)) | Average uterine lace (McPhail Index) ([1]; rabbit, 1 mg/kg, s/c) | Average uterine lace (McPhail Index) ([1]; rabbit, 0,01 mg/kg, s/c) | Hypertrophy of the cornua ([1]; rabbit, 1 mg/kg p/o route versus s/c route) | Average uterine lace (McPhail Index) ([1]; rabbit, 1 mg/kg, per os) | Average uterine lace (McPhail Index) ([1]; rabbit, 1 mg/kg, s/c, 1 mg/kg) | RBA for the human progestogen receptor, times weaker than that of Trimegestone [2] [times]
1 | CC(=O)[C@H]1CC[C@H]2[C@@H]3CCC4=CC(=O)CC[C@]4(C)[C@H]3CC[C@]12C [Progesterone, reference compound] | 1,8 | 4 | 3,8 | – | – | – | – | –
2 | C[C@H](O)C(=O)[C@@]1(C)CC[C@H]2[C@@H]3CCC4=CC(=O)C[C@H](O)C4=C3CC[C@@]21C [Product A, [1α, 17β-(S)]-1-hydroxy-17-(2-hydroxy-1-oxopropyl)-17-methyl-Δ^4,9-estradiene-3-one] | 3,8 | – | – | 3,8 | stronger hypertrophy of the cornua | 4 | 3,8 | 9
